This is an account of results in patent US5334596A, “Fibrinogen receptor antagonists” (Merck & Co., Inc., priority 1993, dated 1994).

Test [1] deals with gel-filtered human platelets. Briefly: ADP-stimulated platelet aggregation (gel-filtered human platelets, fibrinogen, Ca2+). The conditions noted are these: gel-filtered human platelets 2×10^8 per ml, fibrinogen 100 ug/ml, Ca2+ 1 mM, 10 mM ADP, 37° C., read-out: IC50 (inhibition of platelet aggregation by 50% relative to a control lacking the compound). The class given is cell-based. The method, then:
Platelet aggregation is measured at 37° C. in a Chronolog aggregometer. The reaction mixture contains gel-filtered human platelets (2×10^8 per ml), fibrinogen (100 micrograms per ml (ug/ml)), Ca^2+ (1 mM), and the compound to be tested. The aggregation is initiated by adding […] ADP 1 minute after the other components are added. The reaction is then allowed to proceed for at least 2 minutes. The extent of inhibition of aggregation is expressed as the percentage of the rate of aggregation observed in the absence of inhibitor. The IC50 is the dose of a particular compound inhibiting aggregation by 50% relative to a control lacking the compound.
In addition to the following preparative procedures, several examples of in-vitro bioactivity of compounds within the scope of the present invention are indicated. To illustrate, one test which is used to evaluate fibrinogen receptor antagonist activity is based on evaluation of inhibition of ADP-stimulated platelets. Aggregation requires that fibrinogen bind to and occupy the platelet fibrinogen receptor site. Inhibitors of fibrinogen binding inhibit aggregation. In the ADP-stimulated platelet aggregation assay used to determine inhibition associated with the compounds claimed in the instant invention, human platelets are isolated from fresh blood, collected into acid citrate/dextrose by differential centrifugation followed by gel filtration on Sepharose 2B in divalent ion-free Tyrode's buffer (pH 7.4) containing 2% bovine serum albumin.

For the next test, the system named is gp IIb/IIIa complex. The conditions noted are these: literature, background section; cited from earlier work.
The subject of test [2] is cell attachment-promoting effects of fibronectin and vitronectin. The conditions noted are these: background section; cited from earlier work.

As usually defined, the IC50 is the point on the concentration scale where inhibition reaches its midpoint.

As for `CCCCS(=O)(=O)N[C@@H](CNC(=O)c1cc2c(s1)CCN(CCC1CCNCC1)C2=O)C(=O)O` [2-9, 2-[3-(2(S)-n-butylsulfonylamino)propionic acid]carboxamide-4-oxo-5-[2-(4-piperidinyl)ethyl]-4,5,6,7-tetrahydro[3,2-c]pyridine], in test [1], the IC50 was determined as 8 nM.

Regarding `C[C@H](CC(=O)O)NC(=O)c1cc2c(s1)CCN(CCC1CCNCC1)C2=O` [2-21, 2-[3-(3(R)-Methyl)propionic acid]carboxamide-4-oxo-5-[2-(4-piperidinyl)ethyl]-4,5,6,7-tetrahydrothieno[3,2-c]pyridine], in test [1], the IC50 was found to be 220 nM.

On to Echistatin, for which the “affinity for the gp IIb/IIIa complex” value in the test with gp IIb/IIIa complex was “high affinity”.

For the molecule `O=C(NC[C@H](NS(=O)(=O)c1ccccc1)C(=O)O)c1cc2c(s1)CCN(CCC1CCNCC1)C2=O` [2-14, 2-[3-(2(S)-Phenylsulfonylamino)propionic acid]carboxamide-4-oxo-5-[2-(4-piperidinyl)ethyl]-4,5,6,7-tetrahydro[3,2-c]pyridine], the IC50 in test [1] came to 8 nM.

On to `O=C(O)CCNC(=O)c1cc2c(s1)CCN(CCC1CCNCC1)C2=O` [3-3, 2-[3-(Propionic acid)]carboxamide-4-oxo-5-[2-(piperidinyl)]ethyl-4,5,6,7-tetrahydrothieno[3,2-c]pyridine], for which the IC50 in test [1] was determined as 150 nM.

In the case of `O=C(O)CCCC(=O)c1cc2c(s1)CCN(CCC1CCNCC1)C2=O` [4-3], the IC50 in test [1] turned out to be 260 nM.

For the molecule “arginine-glycine-aspartic acid [Arg-Gly-Asp]”, the “activity of the tripeptide” value in test [2] is given as “low activity”.

As to `O=C(NCc1ccccc1)N[C@@H](CNC(=O)c1cc2c(s1)CCN(CCC1CCNCC1)C2=O)C(=O)O` [2-17, 2-[3-(2(S)-benzylureido)propionic acid]carboxamide-4-oxo-5-[2-(4-piperidinyl)ethyl]-4,5,6,7-tetrahydro[3,2-c]pyridine], in test [1], the IC50 turned out to be 25 nM.

Regarding `O=C(O)CCNC(=O)c1cc2c(s1)C(=O)N(CCC1CCNCC1)C2=O` [1-6, 5-(2-Carboxyethyl)carboxamide-[N-2-(4-Piperidinyl)ethyl]-2,3-thiophenedicarboximide], the IC50 in test [1] was determined as 5000 nM.

For the molecule `CCCCS(=O)(=O)N[C@@H](CNC(=O)c1csc2c1C(=O)N(CCC1CCNCC1)CC2)C(=O)O` [2-11, 3-[3-(2(S)-n-Butylsulfonylamino)propionic acid]carboxamide-4-oxo-5-[2-(4-piperidinyl)ethyl]-4,5,6,7-tetrahydro[3,2-c]pyridine], the IC50 in test [1] worked out at 33000 nM.
